For one assay, the target named is T1, human 5-LOX (Homo sapiens, UniProt P09917).
T1 construct: purchased Cayman 60402; host or cells: insect cells (lysate)
T1 sequence (P09917 1-674): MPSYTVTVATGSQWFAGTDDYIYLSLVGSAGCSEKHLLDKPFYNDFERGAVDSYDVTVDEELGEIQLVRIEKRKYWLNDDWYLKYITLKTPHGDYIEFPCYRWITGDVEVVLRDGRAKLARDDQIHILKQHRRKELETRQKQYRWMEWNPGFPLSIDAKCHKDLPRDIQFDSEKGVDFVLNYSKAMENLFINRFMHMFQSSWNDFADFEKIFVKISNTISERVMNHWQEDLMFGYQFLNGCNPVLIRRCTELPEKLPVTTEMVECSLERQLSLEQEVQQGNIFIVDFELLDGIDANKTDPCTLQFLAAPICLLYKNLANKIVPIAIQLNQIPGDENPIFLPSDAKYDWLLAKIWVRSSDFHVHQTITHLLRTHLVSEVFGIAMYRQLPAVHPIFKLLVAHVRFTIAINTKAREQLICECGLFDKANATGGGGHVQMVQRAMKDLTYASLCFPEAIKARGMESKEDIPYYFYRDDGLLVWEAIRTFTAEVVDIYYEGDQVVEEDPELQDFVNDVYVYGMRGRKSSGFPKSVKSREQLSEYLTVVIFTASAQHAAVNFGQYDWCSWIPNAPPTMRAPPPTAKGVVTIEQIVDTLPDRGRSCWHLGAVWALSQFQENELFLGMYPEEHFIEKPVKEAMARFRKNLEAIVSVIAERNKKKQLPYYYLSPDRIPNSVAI
Put plainly: 5-LOX enzyme activity, fluorescence method (5-HPETE, H2DCFDA). The format is biochemical. As to conditions: read-out: 5-LO (IC50). As to the method:
The activity of compounds against 5-LOX were determined by measuring LTB4 (leukotriene B4) levels and/or by a fluorescence method. Both approaches are outlined in more detail below;
The compound, in a dose response manner(0.5 nM to 10 uM), and enzyme mixture was pre-incubated for 5 minutes, and the enzymatic reaction was initiated by addition of ATP and arachidonic acid to a final concentration of 100 uM and 3 uM, respectively. […] All steps were carried out at room temperature.

The subject of assay [1] is Rat basophilic leukemia (RBL) cells. Kind of assay: LTB4 secretion assay in RBL (rat basophilic leukemia cells). The format is cell-based. The following applies: Rattus norvegicus, RBL. Here is the method:
Rat basophilic leukemia (RBL) cells (ATCC, Cat #CRL-2256) were maintained in EMEM (ATCC, Cat #30-2003) supplemented with 15% FBS. The day before RBL assay, cells were seeded at a concentration of 2×10^4 cells per well in 96-well plates. The media was replaced with 100 ul of EMEM supplemented with 0.5% FBS and compounds in dose response(5 nM to 100 uM) were added. After 15 min of pre-incubation at 37° C., arachidonic acid and calcium ionophore (A23187) were added to give a final concentration of 2.5 uM and 5 uM, respectively. After a further 10 min incubation at 37° C., culture supernatant was transferred and quantification of LTB4 was done with a Leukotriene B4 EIA kit (Cayman, Cat #520111) as instructed.

Structures are written as SMILES.

As to `Clc1ccc(OC(CNc2nc3ccc(NC4COC4)cc3[nH]2)c2ccccc2)cc1` (stereo not drawn) [Compound 180], the IC50 at human 5-LOX was under 1 µM. In assay [1], the EC50 was under 10 µM.
For `Cn1c(NCc2ccc(Oc3ccc(Cl)cn3)cc2F)nc2ccc(N)cc21` [Compound 272], in that order: under 1 µM and under 10 µM.
On the same counts, the results for `COCCN(Cc1ccc(Oc2ccc(Cl)cn2)cc1)c1nc2ccc(NC3COC3)cc2n1C` [Compound 339] are under 1 µM and 10 to 20 µM.
On the same counts, the results for `Nc1ccc2nc(NCc3ccc4cccnc4c3)[nH]c2c1` [Compound 159] are under 1 µM and over 20 µM.
With `CN(C)c1nc2cc(N3CCC(c4nc5ccc(Cl)cc5o4)C3)ccc2[nH]1` (stereo not drawn) [Compound 236], the IC50 at human 5-LOX was under 1 µM. Moreover, the EC50 in assay [1] is under 10 µM.
On the same counts, the results for `Cn1c(NCc2ccc(Oc3ccc(C(F)(F)F)cn3)cc2)nc2ccc(N)cc21` [Compound 276] are under 1 µM and under 10 µM.
For `Nc1ccc2[nH]c(N3CCC(C(=O)Nc4ccc(OC(F)(F)F)cc4)C3)nc2c1` (stereo not drawn) [Compound 64], in that order: under 1 µM and over 20 µM.
For `CN(C)c1nc2ccc(NCc3ccc(N(CC(N)=O)c4ccc(F)cc4)cc3)cc2[nH]1` [Compound 212], the IC50 on human 5-LOX was under 1 µM. For the same compound, the EC50 in assay [1] is under 10 µM.
On the same counts, the results for `Cc1cc(Oc2ccc(Cl)cn2)cc(C)c1CNc1nc2ccc(NC3COC3)cc2n1C` [Compound 335] are under 1 µM and under 10 µM.
For `Cn1c(NCc2ccc(Oc3ncc(Cl)cc3F)cc2)nc2ccc(N)cc21` [Compound 323], in that order: under 1 µM and under 10 µM.
On to `Cn1c(NCc2ccc(Oc3cn4ccc(Cl)cc4n3)cc2)nc2ccc(NC3COC3)cc21` [Compound 455], for which the IC50 at human 5-LOX was under 1 µM. In addition, the 50% effective concentration (EC50) in assay [1] was under 10 µM.
Take `Nc1cnc2c(c1)nc(N1CCCC1)n2CCOc1ccc(OC(F)(F)F)cc1` [Compound 72]: at human 5-LOX, the IC50 was over 10 µM. For the same compound, the concentration giving a half-maximal response (EC50) in assay [1] is over 20 µM.
For `Cn1ccc(Nc2ccc3nc(NCc4ccc(Oc5ncc(Cl)cn5)cc4)[nH]c3c2F)n1` [Compound 480], in that order: under 1 µM and under 10 µM.
For `OCCn1c(NCc2ccc(Oc3ccc(Cl)cn3)cc2)nc2ccc(NC3COC3)cc21` [Compound 257], in that order: under 1 µM and under 10 µM.
Take `Cn1c(NCc2ccc(COc3ccc(Cl)cn3)cc2)nc2ccc(N)cc21` [Compound 304]: on human 5-LOX, the IC50 was under 1 µM. In assay [1], the EC50 was under 10 µM.
On the same counts, the results for `Nc1ccc2nc(NCCC(F)(F)F)n(Cc3ccc(Oc4ccc(Cl)cc4)cc3)c2c1` [Compound 264] are under 1 µM and under 10 µM.
On the same counts, the results for `CCn1c(NCc2ccc(Oc3ccc(Cl)cn3)cc2)nc2ccc(N)cc21` [Compound 265] are under 1 µM and under 10 µM.
For `Cc1cc(Nc2ccc3nc(NCc4ccc(Oc5ncc(Cl)cn5)cc4)[nH]c3c2)n[nH]1` [Compound 485], in that order: under 1 µM and 10 to 20 µM.
With `Nc1ccc2nc(NCC(=O)O)n(Cc3ccc(Oc4ccc(Cl)cc4)cc3)c2c1` [Compound 225], the IC50 on human 5-LOX is under 1 µM. In assay [1], this compound had an EC50 of over 20 µM.
For `Cn1c(NCc2cc(Cl)c(Oc3ncc(Cl)cn3)cc2Cl)nc2ccc(N)cc21` [Compound 432], in that order: under 1 µM and under 10 µM.
For `Cn1c(NCc2ccc(Oc3ccncn3)cc2)nc2ccc(N)cc21` [Compound 370], in that order: under 1 µM and 10 to 20 µM.
For `Cn1c(NCc2ccc(Oc3ccnc4cc(Cl)ccc34)cc2)nc2ccc(N)cc21` [Compound 375], in that order: under 1 µM and under 10 µM.
For `Cc1cc(CNc2nc3ccc(NC4COC4)cc3n2C)ccc1Oc1ccc(Cl)cn1` [Compound 283], the IC50 on human 5-LOX was under 1 µM. This compound also had an EC50 in assay [1] of under 10 µM.
For `CN(C)CCn1c(NCc2ccc(Oc3ccc(Cl)cn3)cc2)nc2ccc(NC3COC3)cc21` [Compound 332], in that order: under 1 µM and under 10 µM.
For `COc1ccc(Oc2ccc(CNc3nc4ccc(NC5COC5)cc4n3C)cc2)nc1` [Compound 331], the IC50 at human 5-LOX is under 1 µM. Further, the EC50 in assay [1] was under 10 µM.
On the same counts, the results for `Cn1c(NCc2ccc(Oc3ncc(Cl)c(C4CC4)n3)cc2)nc2ccc(N)cc21` [Compound 397] are under 1 µM and under 10 µM.
Consider `Cn1c(NCc2ccc(Oc3ncc(Cl)cn3)cc2)nc2ccc(NC3CN(C(=N)N)C3)cc21` [Compound 443], for which the IC50 at human 5-LOX is under 1 µM. Also, the EC50 in assay [1] was over 20 µM.
As to `Cn1c(NCc2ccc(Oc3ccc(Cl)cn3)cc2)nc2ccc(NC3CN(C(N)=O)C3)cc21` [Compound 404], the IC50 on human 5-LOX was under 1 µM. In assay [1], this compound had an EC50 of over 20 µM.
On the same counts, the results for `Cc1cc(Oc2ncc(Cl)cn2)cc(C)c1CNc1nc2ccc(N)cc2n1C` [Compound 385] are under 1 µM and 10 to 20 µM.
For `CN(c1ccc(CNc2nc3ccc(N)cc3n2C)cc1)c1ncc(Cl)cn1` [Compound 463], in that order: under 1 µM and under 10 µM.
On the same counts, the results for `Cn1c(N2CCC(COc3ccc(Cl)cc3)CC2)nc2ccc(N)cc21` [Compound 163] are under 1 µM and over 20 µM.
Turning to `Fc1ccc(CCNc2nc3cc(NC4COC4)ccc3[nH]2)cc1` [Compound 33], the IC50 at human 5-LOX was under 1 µM. This compound yielded an EC50 in assay [1] of under 10 µM.
On the same counts, the results for `COc1nc(Oc2ccc(CNc3nc4ccc(N)cc4n3C)cc2)ncc1Cl` [Compound 454] are under 1 µM and 10 to 20 µM.
For `CN(C)c1nc2ccc(NCc3ccc(C4(C(N)=O)CCOCC4)cc3)cc2[nH]1` [Compound 237], in that order: under 1 µM and over 20 µM.
For `Cn1c(NCc2ccc(Oc3ncc4cc(Cl)ccc4n3)cc2)nc2ccc(NC3COC3)cc21` [Compound 406], in that order: under 1 µM and under 10 µM.
`COc1ccc(Oc2ccc(CNc3nc4ccc(N)cc4n3C)cc2)nc1` [Compound 330]: at human 5-LOX, the IC50 is under 1 µM. Moreover, the EC50 in assay [1] was under 10 µM.
For `Fc1ccc(OC2CCN(c3nc4cc(NC5COC5)ccc4[nH]3)CC2)cc1` [Compound 36], in that order: under 1 µM and 10 to 20 µM.
Turning to `Cn1c(NCc2ccc(Oc3ccc(Cl)cn3)cn2)nc2ccc(N)cc21` [Compound 299], the IC50 at human 5-LOX is under 1 µM. The EC50 in assay [1] was under 10 µM.
For `Nc1nc2ccc(N3CCC(Oc4ccc(OC(F)(F)F)cc4)C3)cc2[nH]1` (stereo not drawn) [Compound 63], in that order: under 1 µM and 10 to 20 µM.
On the same counts, the results for `Cn1c(NCc2ccc(Oc3ccc(OC(F)(F)F)cn3)cc2)nc2ccc(N)cc21` [Compound 377] are under 1 µM and under 10 µM.
For `Cn1c(NCc2ccc(Oc3nc4cc(Cl)ccc4o3)cc2)nc2ccc(NC3COC3)cc21` [Compound 403], in that order: under 1 µM and under 10 µM.
In the case of `Cn1c(NCc2ccc(Oc3ncc4cccc(Cl)c4n3)cc2)nc2ccc(NC3COC3)cc21` [Compound 437], the IC50 at human 5-LOX was under 1 µM. The compound also showed an EC50 in assay [1] of under 10 µM.
In the case of `Cn1c(NCc2ccc(Oc3ncc(-c4ccc(Cl)cc4)cn3)cc2)nc2ccc(N)cc21` [Compound 460], the IC50 on human 5-LOX was under 1 µM. The compound also had an EC50 in assay [1] of under 10 µM.
On the same counts, the results for `CCn1c(NCc2ccc(Oc3cnc(Cl)cn3)cc2)nc2ccc(Nc3n[nH]c(C)c3Cl)cc21` [Compound 515] are over 10 µM and under 10 µM.
For `Cn1c(N(CCO)Cc2ccc(Oc3ccc(Cl)cn3)cc2)nc2ccc(N)cc21` [Compound 317], in that order: under 1 µM and over 20 µM.
As to `Nc1nc2ccc(Nc3n[nH]cc3C(=O)NC3CCCC3)cc2n1CCOc1ccc(OC(F)(F)F)cc1` [Compound 18], the IC50 at human 5-LOX fell in the range of 1 to 10 µM.
Still for that read-out and setting: with `O=C(NC1CCCC1)c1c[nH]nc1Nc1ccc2[nH]c(NCc3ccc(Oc4ccc(Cl)cc4)cc3)nc2c1` [Compound 19] the figure was under 1 µM; with `Nc1ccc2[nH]c(NCc3ccc(N4CCC(Oc5ccc(Cl)cc5)CC4)cc3)nc2c1` [Compound 2], under 1 µM.

Broadly, the IC50 is the concentration needed to halve the response being measured. One may read the EC50 as the concentration that produces a half-maximal response. Read a low EC50 as a more potent agent.

For the origin of these results see patent US11447486B2, “2-amino-benzimidazole derivatives and their use as 5-lipoxygenase and/or prostaglandin E synthase inhibitors” (INSTITUT PASTEUR KOREA, priority 2014, dated 2022).
